# Where “and” joins values, the source holds several entries; their conditions need not be identical. Equal entries are not always repeated. Where two headings read alike, the source gives them in different places.
# Columns and labels:
# MCF-7 = assay: MTT cell viability assay, MCF-7; format: cell-based, human; details: for IC50: Homo sapiens, MCF7
# From the text: (§1) Blokhin National Medical Research Center of Oncology (the Ministry of Health of the Russian Federation, Moscow).
# HEK293 = assay: MTT cell viability assay, HEK293; format: cell-based; details: Homo sapiens
# From the text: as §1
# HBL-100/Dox cells [1] = assay: Hoechst 33342 / TMRE fluorescent microscopy, HBL-100/Dox; format: cell-based, human
# Description: The DNA marker, termed Hoechst 33342 Ready Flow Reagent, was used as a stock solution (Invitrogen, ThermoFisher Scientific, USA). The mitochondrial marker, LumiTracker Mito TMRE (tetramethylrhodamine, ethyl ester; Lumiprobe, Moscow, Russia), was dissolved in DMSO as 1.0 mM stock solution. The marker of reactive oxygen species, H2DCFDA (Lumiprobe, Moscow, Russia), was dissolved in DMSO as 100.0 μM stock solution. After incubation, the cells were incubated with FBS-free culture medium containing the dye mixture of Hoechst 33342 (final concentration 1.0 μM) and LumiTracker Mito TMRE (final concentration 1.0 μM), or H2DCFDA dye taken alone (final concentration 1.0 μM), for 30 min at 37 °C in darkness. Fluorescence, at 420 nm (Hoechst 33342), at 510 nm (TMRE), and at 575 nm (H2DCFDA), of the test cultures (including controls) was analyzed immediately using a fluorescence microscope CKX 53 (Olympus, Tokyo, Japan). The TMRE fluorescence intensity was quantified using Fiji (ImageJ).
# HBL-100 cells [2] = assay: Annexin V-FITC/PI assay, HBL-100; format: cell-based, human; details: 16 h
# Description: (§2) Briefly, after exposing the cells to the tested and control compounds for 16 h, the cells were detached with accutase (HiMedia Laboratories, Maharashtra, India) and washed with cold PBS. Then, the cells were re-suspended in 100 μL of 1 × Binding Buffer at concentration 1 × 10^6 cells/mL and incubated with 5 μL Annexin V-FITC and 5 μL propidium iodide (PI) for 15 min at room temperature in darkness. After incubation, 400 μL of 1 × Binding Buffer was added to each tube. The samples were analyzed by flow cytometry (CytoFlex S, Beckman Coulter, Brea, CA, USA) within 1 h of staining, and the findings were analyzed using a trial version of the Kaluza software (Beckman Coulter, Brea, CA, USA).
# P-gp = target: T1, P-gp (Homo sapiens, UniProt P08183); assay: Rhodamine 123 efflux test (P-gp functional activity) in HBL-100/Dox cells; format: cell-based; details: Rh123 efflux, 60 min
# T1 construct: endogenous in cells
# T1 sequence (P08183 whole entry): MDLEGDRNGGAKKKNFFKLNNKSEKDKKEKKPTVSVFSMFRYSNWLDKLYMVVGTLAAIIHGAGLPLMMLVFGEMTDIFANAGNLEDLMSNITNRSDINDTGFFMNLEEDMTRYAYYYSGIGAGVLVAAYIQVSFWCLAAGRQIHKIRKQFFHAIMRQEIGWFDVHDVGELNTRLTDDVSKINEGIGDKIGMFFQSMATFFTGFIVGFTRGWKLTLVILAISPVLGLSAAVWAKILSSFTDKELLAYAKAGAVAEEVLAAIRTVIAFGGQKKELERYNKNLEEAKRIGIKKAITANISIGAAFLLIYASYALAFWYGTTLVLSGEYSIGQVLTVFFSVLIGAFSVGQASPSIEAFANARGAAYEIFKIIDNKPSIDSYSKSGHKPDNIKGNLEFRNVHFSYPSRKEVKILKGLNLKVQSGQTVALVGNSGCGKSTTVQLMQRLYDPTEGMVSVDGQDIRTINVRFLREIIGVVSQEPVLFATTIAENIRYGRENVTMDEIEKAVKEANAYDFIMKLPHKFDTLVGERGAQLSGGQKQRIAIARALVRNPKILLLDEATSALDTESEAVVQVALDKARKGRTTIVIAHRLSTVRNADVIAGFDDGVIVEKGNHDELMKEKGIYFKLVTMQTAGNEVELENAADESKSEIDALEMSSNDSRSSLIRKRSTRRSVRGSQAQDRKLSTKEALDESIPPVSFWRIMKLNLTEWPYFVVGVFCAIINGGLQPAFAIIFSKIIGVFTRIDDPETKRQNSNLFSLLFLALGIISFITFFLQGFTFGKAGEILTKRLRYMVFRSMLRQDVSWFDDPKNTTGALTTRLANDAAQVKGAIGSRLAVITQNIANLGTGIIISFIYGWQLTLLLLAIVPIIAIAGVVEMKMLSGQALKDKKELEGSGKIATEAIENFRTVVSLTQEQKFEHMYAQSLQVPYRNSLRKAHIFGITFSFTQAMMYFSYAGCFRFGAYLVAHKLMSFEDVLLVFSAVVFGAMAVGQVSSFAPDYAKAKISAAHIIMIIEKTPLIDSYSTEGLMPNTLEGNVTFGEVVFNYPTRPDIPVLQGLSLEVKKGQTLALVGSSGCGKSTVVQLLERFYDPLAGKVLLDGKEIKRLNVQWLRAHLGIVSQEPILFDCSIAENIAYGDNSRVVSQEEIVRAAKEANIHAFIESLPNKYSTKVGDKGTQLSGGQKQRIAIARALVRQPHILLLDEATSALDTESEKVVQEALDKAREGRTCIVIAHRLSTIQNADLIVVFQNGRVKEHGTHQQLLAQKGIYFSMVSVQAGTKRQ
# Description: The functional activity of P-gp was evaluated using the previously described method. […] After incubation, the cells were washed twice and divided into several fractions (2.5 × 10^5 cells per point). One fraction was incubated in a pure medium, and the other one was incubated with MK (2.0 μM) added. […] Cell fluorescence was evaluated on CytoFlex S flow cytometer (Beckman Coulter, Brea, CA, USA). The results were analyzed using FlowJo software (ver. X 10.0.7r2, FlowJo Software, San Jose, CA, USA) and were represented as geometric mean fluorescence intensity (gMFI) and MAF coefficient, which were calculated using the following formula: MAF = (Mean (inh.) − Mean (free))/Mean (inh.), where MAF is the MDR activity functional, mean (free) is the mean value of cell fluorescence without inhibitor, and mean (inh.) is the mean value for cell fluorescence with inhibitor.
# HBL-100 cells [3] = assay: Cell cycle analysis (DAPI, flow cytometry), HBL-100; format: cell-based, human; details: for Cell cycle of HBL-100, G0/G1 / Cell cycle of HBL-100, G2/M / Cell cycle of HBL-100, S-phase / Cell cycle of HBL-100, subG0/G1: dose = IC50
# Description: The cells were trypsinized and rinsed with the growth medium. Then, the cells were harvested by centrifugation at 500× g for 3 min, and the supernatant was discarded. The cells were washed with PBS (PanEco, Moscow, Russia) twice and centrifuged under similar conditions. The cells were resuspended in 500 μL of PBS, put into centrifuge tubes and fixed by adding 4.5 mL of 70% ethanol dropwise (on ice). The samples were fixed at 4 °C. Overnight, the fixed cells were centrifugally collected (1000× g, 4 °C, 5 min) and washed again with PBS. The cells were finally resuspended in DAPI with 0.1% Triton X-100 in PBS solution (10 μg/mL, Sigma–Aldrich, St. Louis, MO, USA), and stained for 30 min at room temperature in darkness. For each sample, at least 50,000 cells were analyzed using the CytoFlex S flow cytometer (Beckman Coulter, Brea, CA, USA). Cell cycle populations were quantified from DNA histograms with the FlowJo software (ver. X 10.0.7r2, FlowJo Software, San Jose, CA, USA).
# HBL-100/Dox cells [4] = assay: Annexin V-FITC/PI assay, HBL-100/Dox; format: cell-based, human; details: 16 h
# Description: as §2
smiles,measurement,setting,value
"COC(=O)[C@]12CC[C@@H](C(C)C)[C@@H]1[C@H]1CC[C@@H]3[C@@](C)(CCC#N)[C@H](C(=O)C(Br)Br)CC[C@@]3(C)[C@]1(C)CC2 [compound 31, 2-Cyano-24,24-dibromo-4-oxo-3,4-seco-3,23-dinorlupan-28-oic acid methyl ester]",IC50,"MCF-7; MCF-7, MTT, 72 h of treatment, read-out: IC50 Values (Mean ± SD)",7.1 ± 0.7 µM
same,IC50,"MCF-7; Table S1, MCF-7, read-out: IC50 (mean ± SD)",7.06 ± 0.72 µM
same,Selectivity index (SI),MCF-7; ratio of IC50 values healthy (HEK293) / MCF-7,1.62
same,IC50,"HEK293; HEK293, MTT, 72 h of treatment, read-out: IC50 Values (Mean ± SD)",11.5 ± 0.6 µM
same,IC50,"HEK293; Table S1, HEK293, read-out: IC50 (mean ± SD)",11.5 ± 0.56 µM
same,"mitochondrial membrane potential (MMP), TMRE fluorescence intensity","HBL-100/Dox cells [1]; 16 h, vs untreated control",significant (p < 0.05) reduction in MMP
same,number of cells with nuclear morphology changes,"HBL-100/Dox cells [1]; Hoechst 33342, 16 h, IC50 values (MK 1.8 µM)",33.1%
same,Dead cells,HBL-100 cells [2]; dose 2xIC50,5.59±0.46%
same,Late apoptotic cells,HBL-100 cells [2]; dose 2xIC50,10.37 ± 1.01%
same,Viable cells,HBL-100 cells [2]; dose 2xIC50,76.73 ± 1.18%
same,Early apoptotic cells,"HBL-100 cells [2]; dose 2xIC50, listed as MK",7.29 ± 0.28% and 7.29±0.29%
same,Dead cells,HBL-100 cells [2]; dose IC50,2.69±0.13%
same,Late apoptotic cells,HBL-100 cells [2]; dose IC50,3.59 ± 0.82%
same,Early apoptotic cells,"HBL-100 cells [2]; dose IC50, listed as MK",4.43±0.49%
same,Viable cells,"HBL-100 cells [2]; dose IC50, listed as MK",89.57 ± 0.93% and 89.58±0.94%
same,P-gp inhibitory activity,P-gp,extremely low P-gp inhibitory activity
same,MAF (MDR activity functional),"P-gp; MK 2 μM, verapamil 30 μM, listed as MK",0.22±0.1 and 0.22
same,"Cell cycle of HBL-100, G0/G1",HBL-100 cells [3]; 12 h,59.78±0.94%
same,"Cell cycle of HBL-100, G2/M",HBL-100 cells [3]; 12 h,15.88±0.50%
same,"Cell cycle of HBL-100, S-phase",HBL-100 cells [3]; 12 h,24.35±0.43%
same,"Cell cycle of HBL-100, subG0/G1",HBL-100 cells [3]; 12 h,1.44 ± 0.44%
same,"Cell cycle of HBL-100, G0/G1",HBL-100 cells [3]; 13 h,56.56±0.16%
same,"Cell cycle of HBL-100, G2/M",HBL-100 cells [3]; 13 h,16.70±0.71%
same,"Cell cycle of HBL-100, S-phase",HBL-100 cells [3]; 13 h,26.74±0.54%
same,"Cell cycle of HBL-100, subG0/G1",HBL-100 cells [3]; 13 h,1.74±0.05%
same,"Cell cycle of HBL-100, G0/G1",HBL-100 cells [3]; 14 h,56.69±0.01%
same,"Cell cycle of HBL-100, G2/M",HBL-100 cells [3]; 14 h,16.96±0.16%
same,"Cell cycle of HBL-100, S-phase",HBL-100 cells [3]; 14 h,26.35±0.16%
same,"Cell cycle of HBL-100, subG0/G1",HBL-100 cells [3]; 14 h,1.74±0.18%
same,"Cell cycle of HBL-100, G0/G1",HBL-100 cells [3]; 15 h,57.83±1.04%
same,"Cell cycle of HBL-100, G2/M",HBL-100 cells [3]; 15 h,16.29±0.55%
same,"Cell cycle of HBL-100, S-phase",HBL-100 cells [3]; 15 h,25.88±0.49%
same,"Cell cycle of HBL-100, subG0/G1",HBL-100 cells [3]; 15 h,2.38±0.42%
same,"Cell cycle of HBL-100, G0/G1",HBL-100 cells [3]; 16 h,56.91±0.07%
same,"Cell cycle of HBL-100, G2/M",HBL-100 cells [3]; 16 h,18.83±0.14%
same,"Cell cycle of HBL-100, S-phase",HBL-100 cells [3]; 16 h,24.26±0.08%
same,"Cell cycle of HBL-100, subG0/G1",HBL-100 cells [3]; 16 h,4.89±1.93%
same,"Cell cycle of HBL-100, G0/G1",HBL-100 cells [3]; 17 h,55.78±0.79%
same,"Cell cycle of HBL-100, G2/M",HBL-100 cells [3]; 17 h,18.39±1.04%
same,"Cell cycle of HBL-100, S-phase",HBL-100 cells [3]; 17 h,25.83±0.24%
same,"Cell cycle of HBL-100, subG0/G1",HBL-100 cells [3]; 17 h,3.50±0.42%
same,"Cell cycle of HBL-100, G0/G1",HBL-100 cells [3]; 18 h,56.81±0.03%
same,"Cell cycle of HBL-100, G2/M",HBL-100 cells [3]; 18 h,15.38±0.01%
same,"Cell cycle of HBL-100, S-phase",HBL-100 cells [3]; 18 h,27.81±0.04%
same,"Cell cycle of HBL-100, subG0/G1",HBL-100 cells [3]; 18 h,4.39±0.82%
same,"Cell cycle of HBL-100, G0/G1",HBL-100 cells [3]; 24 h,66.48 ± 1.33%
same,"Cell cycle of HBL-100, G2/M",HBL-100 cells [3]; 24 h,4.43 ± 0.50%
same,"Cell cycle of HBL-100, S-phase",HBL-100 cells [3]; 24 h,29.09±0.89%
same,"Cell cycle of HBL-100, subG0/G1",HBL-100 cells [3]; 24 h,8.22 ± 0.59%
same,effect on cell cycle progression,"HBL-100 cells [3]; HBL-100 (parental) cells, 12-24 h, IC50",blocked or slowed down the cell cycle progression through the G0/G1 phase
same,Dead cells,HBL-100/Dox cells [4]; dose 2xIC50,4.59±0.45%
same,Viable cells,HBL-100/Dox cells [4]; dose 2xIC50,78.69 ± 1.29%
same,Early apoptotic cells,"HBL-100/Dox cells [4]; dose 2xIC50, listed as MK",5.50±0.44%
same,Late apoptotic cells,"HBL-100/Dox cells [4]; dose 2xIC50, listed as MK",10.94 ± 0.81% and 10.94±0.82%
same,Dead cells,HBL-100/Dox cells [4]; dose IC50,2.52±0.08%
same,Viable cells,HBL-100/Dox cells [4]; dose IC50,87.82 ± 0.44%
same,Early apoptotic cells,"HBL-100/Dox cells [4]; dose IC50, listed as MK",5.04 ± 0.51% and 5.04±0.52%
same,Late apoptotic cells,"HBL-100/Dox cells [4]; dose IC50, listed as MK",4.74 ± 0.44% and 4.74±0.04%
